# Measured values: patent publication US20040146482A1, “Cosmetic and/or pharmaceutical preparations containing an extract of pterocarpus marsupium” (priority 2001, published 2004)
# System: human keratinocytes
# Assay: Cell protecting effect against UV-B in keratinocytes cultivated in vitro
# Type: cell-based
# Settings: UV-B 50 mJ/cm2, concentration not given
# From the text: Background: UV-B rays cause inflammation (erythema, edema) by activating an enzyme, namely phospholipase A2 or PLA2, which removes arachidonic acid from the phospholipids of the cell membrane. Arachidonic acid is the precursor of the prostaglandins which cause inflammation and cell membrane damage; the prostaglandins E2 (=PGE2) are formed by cyclooxygenase. A UV-challenged cell produces another inflammation mediator, namely interleucine-1-alpha (1′ILα), which is capable of inducing the secretion of prostaglandins.
# Method: The effect of UV-B radiation was investigated in vitro in keratinocytes by determining the release of the cytoplasm enzyme LDH (lactate dehydrogenase) and the(1′ILα) content.
# To carry out the tests, a defined medium containing fetal calf serum was inoculated with the keratinocytes and Trichodyn® was added 72 hours after the inoculation.
# The keratinocytes were then exposed to a dose of UV-B (50 mJ/cm^2-tubes: DUKE GL40E).
# After incubation for another day at 37° C./5% CO2, the LDH content in the supernatant was determined. The LDH (lactate dehydrogenase) content was determined by an enzyme reaction (kit used to determine LDH levels from Roche). In addition , the (1′ILα) content was determined by the ELISA test. The number of adhering keratinocytes was determined (after trypsin treatment) with a particle counter.
smiles,measurement,setting,value
CC(=O)Oc1ccccc1C(=O)O [aspirin],(1′ILα) content,UV-B alone = 100,69%
same,Content of released LDH,UV-B alone = 100,66%
same,No. of keratinocytes,"control without UV-B = 100, UV-B alone 17",15%
